From patent US7560470B2, “Heterocyclyl-3-sulfonylindazoles as 5-hydroxytryptamine-6 ligands” (Wyeth, priority 2003, dated 2009)

Experiments:
[1] = target: T1, human cloned 5-HT6 receptors (Homo sapiens, UniProt P50406); assay: 5-HT6 binding affinity, [3H]-LSD displacement on membranes of Hela cells expressing human cloned 5-HT6 receptors; settings: [3H]-LSD 3.0 nM, Hela cell membranes, 120 min at room temperature; read-out: 5-HT6 Binding Ki
T1 construct: expressed in transfected cells; host or cells: HeLa cells (membrane preparation)
Description: The affinity of test compounds for the serotonin 5-HT6 receptor is evaluated in the following manner. Cultured Hela cells expressing human cloned 5-HT6 receptors are harvested and centrifuged at low speed (1,000×g) for 10.0 min to remove the culture media. The harvested cells are suspended in half volume of fresh physiological phosphate buffered saline solution and recentrifuged at the same speed. This operation is repeated. The collected cells are then homogenized in ten volumes of 50 mM Tris.HCl (pH 7.4) and 0.5 mM EDTA. The homogenate is centrifuged at 40,000×g for 30.0 min and the precipitate is collected. The obtained pellet is resuspended in 10 volumes of Tris.HCl buffer and recentrifuged at the same speed. The final pellet is suspended in a small volume of Tris.HCl buffer and the tissue protein content is determined in aliquots of 10-25 μl volumes. Bovine Serum Albumin is used as the standard in the protein determination according to the method described in Lowry et al., J. Biol. Chem., 193:265 (1951). The volume of the suspended cell membranes is adjusted to give a tissue protein concentration of 1.0 mg/ml of suspension. The prepared membrane suspension (10 times concentrated) is aliquoted in 1.0 ml volumes and stored at −70° C. until used in subsequent binding experiments.
Binding experiments are performed in a 96 well microtiter plate format, in a total volume of 200 μl. […] The test compounds are added in 20.0 μl volume.
The reaction is allowed to proceed in the dark for 120 min at room temperature, at which time, the bound ligand-receptor complex is filtered off on a 96 well unifilter with a Packard Filtermate® 196 Harvester. The bound complex caught on the filter disk is allowed to air dry and the radioactivity is measured in a Packard TopCount® equipped with six photomultiplier detectors, after the addition of 40.0 μl Microscint®−20 scintillant to each shallow well. The unifilter plate is heat-sealed and counted in a PackardTopCount® with a tritium efficiency of 31.0%.
Binding in the presence of varying concentrations of test compound is expressed as a percentage of specific binding in the absence of test compound. The results are plotted as log % bound versus log concentration of test compound. Nonlinear regression analysis of data points with a computer assisted program Prisms® yields both the IC50 and the Ki values of test compounds with 95% confidence limits.
The amount of displacement by the test compound is given in percent (%) inhibition and is derived from the following equation:
[formula] where B0 is the amount of CPM bound in the presence of the testing agent. NSB represents the CPM bound in the presence of a saturating concentration of a displacer and TB represents the total amount of CPM bound at zero (0) concentration of test compound.
Alternatively, a linear regression line of data points is plotted, from which the IC50 value is determined and the Ki value is determined based upon the following equation: Ki=IC50/(1+L/KD) where L is the concentration of the radioactive ligand used and KD is the dissociation constant of the ligand for the receptor, both expressed in nM.

T1 sequence (P50406 whole entry): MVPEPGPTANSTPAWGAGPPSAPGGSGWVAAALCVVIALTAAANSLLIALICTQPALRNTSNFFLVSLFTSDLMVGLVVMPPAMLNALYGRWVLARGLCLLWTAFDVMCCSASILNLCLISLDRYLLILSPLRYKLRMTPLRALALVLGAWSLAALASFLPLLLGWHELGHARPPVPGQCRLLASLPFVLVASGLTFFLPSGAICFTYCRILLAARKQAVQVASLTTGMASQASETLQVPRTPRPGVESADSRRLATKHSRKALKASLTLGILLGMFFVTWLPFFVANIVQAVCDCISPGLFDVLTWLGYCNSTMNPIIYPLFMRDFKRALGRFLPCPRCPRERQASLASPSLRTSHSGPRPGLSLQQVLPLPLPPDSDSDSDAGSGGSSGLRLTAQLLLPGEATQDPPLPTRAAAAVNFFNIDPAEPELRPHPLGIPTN

Ki [1]: 3 nM
melting point: > 200 °C
SMILES: CCn1nc(S(=O)(=O)c2ccccc2)c2cc(N3CCNCC3)ccc21 [Example 43]
